From patent EP2325159A1, “Novel salts of rasagiline” (LEK Pharmaceuticals d.d., priority 2009, dated 2011) come the findings set out here.

One series is described as follows: physchem. The settings on record: water, Solubility of rasagiline salts in water.
The nature of series [1]: Solubility of rasagiline salts in water measured using Crystal16 (Avantium Technologies).

Some results are limits rather than exact numbers.

`C#CCN[C@@H]1CCc2ccccc21` [(+)-camphor-10-sulfonate, Rasagiline (+)-camphor-10-sulfonate]: the “Solubility of rasagiline salts in water” value came to 175 mg/mL. The solubility in “physchem” amounted to 113 mg/mL. Take `C#CCN[C@@H]1CCc2ccccc21` [L-mandelate, Rasagiline L-mandelate]: the solubility came out at 70 mg/mL in series [1] (Solubility of rasagiline salts in water, 25 °C, H2O) and 100 mg/mL in series [1] (Solubility of rasagiline salts in water, 40 °C, H2O). As for `C#CCN[C@@H]1CCc2ccccc21` [L-tartrate, Rasagiline L-tartrate, reference compound], the solubility in series [1] is under 30 mg/mL.
